Assays:
[1] = biological target: aggregated tau (Homo sapiens, UniProt P10636); conditions: literature; cited from earlier work
[2] = system: NFTs / cortical tau-rich regions; test: digital autoradiography with [18F]Co. No. 1 on human AD visual cortex slices, with blocking; assay type: binding; conditions: blocker 1 μM; human AD visual cortex slices
Procedure: Adjacent slices were immunostained for tau pathology (B, AT8) and for amyloid beta pathology (C, 4G8).
a) Air-dried frozen, 10-μm-thick slices of the visual cortex of an AD-patient (with Braak stage V-VI) were incubated for 60 min with [^18F]Co. No. 1 (7.4 kBq/500 μL per slice) and subsequently washed with mixtures of PBS and ethanol as described elsewhere (Xia C. F., Arteaga J., Chen G., et al. Alzheimer's Dement. 2013, 1-11). To assess specificity of binding, slices were incubated with tracer in the presence of 1 μM of authentic T808 or Co. No. 1. After drying, slices were exposed to a phosphor storage screen (super-resolution screen, Perkin Elmer). Screens were read in a Cyclone Plus system (Perkin Elmer, Waltham, MA, U.S.A.) and analyzed using Optiquant software. Results are expressed as digital light units per square mm (DLU/mm^2). Adjacent AD slices were immunostained with anti-tau (AT8) and anti-Aβ antibodies (4G8), to correlate with [^18F]Co. No. 1 binding.

[3] = system: AD tissue containing only Aβ plaques; test: in vitro binding of tritiated tracers to tau-negative AD tissue; set-up: species or system human; conditions: tracer 10 nM
Procedure: (§1) The tracer was tested at 10 nM and higher concentrations were not investigated in this study.
(§2) [^3H]-AV-45 (selective for Aβ plaques) binds both tau and Aβ pathology (Aβ+/tau+, Tissue #28391) and Aβ pathology only (Aβ+/tau−, Tissue #92/050) human tissues as expected (FIG. 3L-M). As a control for the human AD tissues (Tissue #28391: FIG. 4, Tissue #92/050: FIG. 5) and striatal tissue (FIG. 6) used in this study immunohistochemistry was performed. […] Furthermore, MAO-B and MAO-A expression in the human striatal tissue (#S96/037) was confirmed using immunohistochemistry (FIG. 6).

[4] = system: MAO; test: in vitro binding of tritiated tracers to MAO-rich human tissue (striatum); conditions: tracer 10 nM
Procedure: as §1
In comparison, the tau tracer [^3H]-THK-5351 and the Aβ tracer [^3H]-AV-45 were used as THK-5351 is known to also bind MAO.

[5] = system: AD brain containing tau and Aβ pathology; test: in vitro binding of tritiated tracers to frozen AD brain slices with tau and Aβ pathology; set-up: species or system human; conditions: tracer 10 nM
Procedure: as §1, §2

[6] = biological target: peripheral cortical benzodiazepine receptors in activated microglia (Homo sapiens, UniProt P30536); conditions: literature; cited from earlier work
Chain of peripheral cortical benzodiazepine receptors in activated microglia (P30536 whole entry): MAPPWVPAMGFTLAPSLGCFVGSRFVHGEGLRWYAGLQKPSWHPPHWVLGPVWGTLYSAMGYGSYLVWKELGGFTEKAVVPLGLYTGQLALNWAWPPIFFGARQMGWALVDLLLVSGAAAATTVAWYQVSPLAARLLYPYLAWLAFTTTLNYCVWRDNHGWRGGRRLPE

[7] = system: human AD brain cortex homogenates containing abundant NFT; conditions: literature; cited from earlier work
[8] = literature; cited from earlier work
[9] = biological target: T1, amyloid plaque-rich, NFT-poor AD brain homogenates (Homo sapiens, UniProt P05067); conditions: literature; cited from earlier work
T1 construct: amyloid plaques which form by aggregation of beta-amyloid peptide; host or cells: AD brain homogenates
T1 sequence (P05067 672-713 limits assumed): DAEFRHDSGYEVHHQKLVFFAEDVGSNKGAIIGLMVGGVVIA

[10] = biological target: PHF (Homo sapiens, UniProt P10636); conditions: literature; cited from earlier work
Chain of PHF (P10636 1-441 isoform P10636-8): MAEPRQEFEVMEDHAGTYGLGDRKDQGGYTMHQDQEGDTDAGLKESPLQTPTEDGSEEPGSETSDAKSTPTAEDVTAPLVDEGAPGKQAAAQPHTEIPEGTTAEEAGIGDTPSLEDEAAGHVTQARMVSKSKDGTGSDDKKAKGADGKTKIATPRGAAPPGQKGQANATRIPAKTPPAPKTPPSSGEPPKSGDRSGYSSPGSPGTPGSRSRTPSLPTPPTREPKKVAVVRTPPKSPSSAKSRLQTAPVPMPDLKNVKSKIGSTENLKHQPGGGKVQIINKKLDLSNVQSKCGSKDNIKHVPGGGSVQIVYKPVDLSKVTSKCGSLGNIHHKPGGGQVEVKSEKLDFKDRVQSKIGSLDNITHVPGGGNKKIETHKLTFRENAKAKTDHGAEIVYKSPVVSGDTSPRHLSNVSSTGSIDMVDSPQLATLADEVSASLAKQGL

[11] = biological target: T2, monoamine oxidase MAO-B (Homo sapiens, UniProt P27338); conditions: literature; cited from earlier work
T2 construct: PET imaging of the human brain with the quinoline compound; host or cells: human brain in vivo
T2 sequence (P27338 1-520): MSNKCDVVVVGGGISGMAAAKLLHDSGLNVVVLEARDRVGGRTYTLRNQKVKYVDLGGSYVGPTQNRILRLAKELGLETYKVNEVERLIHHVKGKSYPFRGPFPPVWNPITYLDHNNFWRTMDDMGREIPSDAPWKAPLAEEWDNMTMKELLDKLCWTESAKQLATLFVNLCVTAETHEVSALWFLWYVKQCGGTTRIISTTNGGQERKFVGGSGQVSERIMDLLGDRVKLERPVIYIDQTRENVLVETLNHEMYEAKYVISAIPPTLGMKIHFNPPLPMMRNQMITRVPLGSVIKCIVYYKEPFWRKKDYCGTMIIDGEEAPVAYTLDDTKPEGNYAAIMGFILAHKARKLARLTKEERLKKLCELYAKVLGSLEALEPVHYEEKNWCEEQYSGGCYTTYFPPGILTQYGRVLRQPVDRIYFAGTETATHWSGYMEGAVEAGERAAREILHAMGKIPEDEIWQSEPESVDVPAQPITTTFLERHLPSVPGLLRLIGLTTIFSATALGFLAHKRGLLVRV

Chain of aggregated tau (P10636 1-441 isoform P10636-8): as the sequence (P10636 1-441 isoform P10636-8) above

In the case of `FCCC1CCN(c2ccn3c(n2)nc2ccccc23)CC1` [T808], the Kd [1] is listed as 22 nM, the “selectivity for tau over Aβ aggregates” value [1] is listed as 27 fold and the “inhibition of [18F]Co. No. 1 binding” value [2] is listed as 99%.
With `Cc1cnc(Nc2ccc3cnccc3c2)cc1F` [[^3H]-Co. No. 1] the “tracer binding to tau-negative AD tissue containing only Aβ plaques” value [3] was “does not bind”, the “tracer binding to MAO-rich human tissue (striatum)” value [4] was “no binding” and the “tracer binding to AD brain slices containing tau and Aβ pathology” value [5] was “binds”.
With `CNc1ccc(-c2ccc3cc(OC[C@H](O)CF)ccc3n2)cn1` [[^3H]-THK-5351, reference compound] the “tracer binding to tau-negative AD tissue containing only Aβ plaques” value [3] was “binds” and the “tracer binding to MAO-rich human tissue (striatum)” value [4] was “binds”.
In the case of `CCC(C)N([11CH3])C(=O)c1cc2ccccc2c(-c2ccccc2Cl)n1` (centres unmarked) [[^11C]PK11195], the “brain retention, patients versus healthy volunteers” value [6] is given as “failing to show any differences”.
In the case of `Nc1c(F)ccc2cnc(-n3ccc4ccncc43)cc12` [^18F-MK-6240, 6-fluoro-3-(1H-pyrrolo[2,3-c]pyridine-1-yl)isoquinoline-5-amine], the “binding to human AD brain cortex homogenates containing abundant NFT” value [7] is listed as “binds with high affinity”, the “defluorination as skull uptake” value [8] is listed as “Moderate defluorination” and the “binding to amyloid plaque-rich, NFT-poor AD brain homogenates” value [9] is listed as “binds poorly”.
For `CNc1ccc(-c2ccc3cc(OC[C@H](O)C[18F])ccc3n2)cn1` [^18F-THK5351], the “affinity to PHF” value [10] is given as “high affinity” and the “off-target binding in PET imaging of the human brain” value [11] is given as “confounded by off-target binding”.

— patent US12006302B2, “Tau PET imaging ligands” (Janssen Pharmaceutica NV, priority 2016, dated 2024)
